Test results taken from PMC4678576, “Optimisation of a triazolopyridine based histone demethylase inhibitor yields a potent and selective KDM2A (FBXL11) inhibitor” (MedChemComm, 2014).

Experiment: Parallel artificial membrane permeation assay (PAMPA)
Assay type: in vitro ADME
Conditions: for Papp: PAMPA, range over pH 7.4, 6.2, 5.0, read-out: membrane permeability (PAMPA), range over the pH values tested

Row | Compound | Papp | PAMPA Pe pH 5.0 | PAMPA Pe pH 6.2 | PAMPA Pe pH 7.4
1 | O=C(O)c1ccnc(-c2cn([C@@H]3CCCN(C(=O)c4ccccc4)C3)nn2)c1 [Compound 35] | 0.41 to 1.9 ×10⁻⁶ cm/s | 1.9 10^−6 cm s^−1 | 0.41 10^−6 cm s^−1 | 0.69 10^−6 cm s^−1
2 | COC(=O)c1ccnc(-c2cn([C@@H]3CCCN(C(=O)c4ccccc4)C3)nn2)c1 [Compound 37] | 45 to 56 ×10⁻⁶ cm/s | 56 10^−6 cm s^−1 | 45 10^−6 cm s^−1 | 52 10^−6 cm s^−1
